From ChEMBL document CHEMBL3885861, “Open TG-GATES”

Species on record: Rattus norvegicus
Test: Open TG-GATES - Regimen: Daily Repeat
Format: toxicity, organism-based, Sprague-Dawley
Design: regimen Daily Repeat, gender Male, age 6 weeks
Details: in vivo, po, route gavage; for APTT / Bas / Eos / Fbg / Hb / Ht / Lym / MCH / MCHC / MCV / Mono / Neu / PT / Plat / RBC / Ret / WBC: tissue Blood; for KIDNEY_L / KIDNEY_R / KIDNEY_TOTAL: tissue Kidney; for LIVER: tissue Liver; for A/G / ALP / ALT / AST / BUN / CRE / Ca / Cl / DBIL / GLC / IP / K / LDH / Na / PL / RALB / TBIL / TC / TG / TP / gamma-GTP: tissue Plasma
[1] = 30 mg/kg, 72 h, dose level Middle, time 3 day
[2] = 30 mg/kg, […], dose level Middle, time 7 day
[3] = 30 mg/kg, […], dose level Middle, time 14 day
[4] = 30 mg/kg, […], dose level Middle, time 28 day
[5] = 100 mg/kg, 72 h, dose level High, time 3 day
[6] = 100 mg/kg, […], dose level High, time 7 day
[7] = 100 mg/kg, […], dose level High, time 14 day
[8] = 100 mg/kg, […], dose level High, time 28 day

## OCCOCCN1CCN(C(c2ccccc2)c2ccc(Cl)cc2)CC1 (centres undefined) [HYDROXYZINE]
[1]
  TERMINAL_BW: 226.2 g
  APTT: 15.8 s
  Bas: 0%
  Eos: 1%
  Fbg: 261.2 mg/dL
  Hb: 13.3 g/dL
  Ht: 40%
  Lym: 77.6%
  MCH: 21.9 pg
  MCHC: 33.3%
  MCV: 65.7 fL
  Mono: 3%
  Neu: 17.8%
  PT: 15.3 s
  Plat: 120.2 x10_4/uL
  RBC: 609.6 x10_4/ul
  Ret: 6.9%
  WBC: 89.6 x10_2/uL
  KIDNEY_L: 1 g
  KIDNEY_R: 1 g
  KIDNEY_TOTAL: 2 g
  LIVER: 10.9 g
  A/G: 0.9
  ALP: 1463.8 IU/L
  ALT: 40.4 IU/L
  AST: 66.6 IU/L
  BUN: 16.8 mg/dL
  CRE: 0.2 mg/dL
  Ca: 11.1 mg/dL
  Cl: 104.8 meq/L
  DBIL: 0.012 mg/dL
  GLC: 186 mg/dL
  IP: 7.9 mg/dL
  K: 4 meq/L
  LDH: 72.6 IU/L
  Na: 143.6 meq/L
  PL: 158.6 mg/dL
  RALB: 2.6 g/dL
  TBIL: 0.05 mg/dL
  TC: 83 mg/dL
  TG: 100.8 mg/dL
  TP: 5.6 g/dL
  gamma-GTP: 0.8 IU/L
[2]
  TERMINAL_BW: 271.6 g
  APTT: 17 s
  Bas: 0.2%
  Eos: 0.6%
  Fbg: 265.6 mg/dL
  Hb: 13.6 g/dL
  Ht: 40.6%
  Lym: 81.8%
  MCH: 21.5 pg
  MCHC: 33.6%
  MCV: 63.9 fL
  Mono: 2.2%
  Neu: 14.4%
  PT: 15.6 s
  Plat: 107.6 x10_4/uL
  RBC: 636 x10_4/ul
  Ret: 6.5%
  WBC: 91.6 x10_2/uL
  KIDNEY_L: 1.1 g
  KIDNEY_R: 1.1 g
  KIDNEY_TOTAL: 2.3 g
  LIVER: 14 g
  A/G: 0.8
  ALP: 1827.8 IU/L
  ALT: 37.6 IU/L
  AST: 64.2 IU/L
  BUN: 18 mg/dL
  CRE: 0.2 mg/dL
  Ca: 11 mg/dL
  Cl: 104.8 meq/L
  DBIL: 0.018 mg/dL
  GLC: 192.8 mg/dL
  IP: 7.8 mg/dL
  K: 4.3 meq/L
  LDH: 58.4 IU/L
  Na: 142 meq/L
  PL: 158 mg/dL
  RALB: 2.7 g/dL
  TBIL: 0.05 mg/dL
  TC: 78 mg/dL
  TG: 120.8 mg/dL
  TP: 5.9 g/dL
  gamma-GTP: 0.6 IU/L
[3]
  TERMINAL_BW: 331.8 g
  APTT: 16.5 s
  Bas: 0%
  Eos: 0.8%
  Fbg: 262.8 mg/dL
  Hb: 14.2 g/dL
  Ht: 41.5%
  Lym: 81.4%
  MCH: 20.7 pg
  MCHC: 34.2%
  MCV: 60.7 fL
  Mono: 3%
  Neu: 14.2%
  PT: 15.6 s
  Plat: 116.6 x10_4/uL
  RBC: 683.8 x10_4/ul
  Ret: 4.5%
  WBC: 103.2 x10_2/uL
  KIDNEY_L: 1.3 g
  KIDNEY_R: 1.3 g
  KIDNEY_TOTAL: 2.7 g
  LIVER: 16.6 g
  A/G: 0.8
  ALP: 1412.8 IU/L
  ALT: 37.6 IU/L
  AST: 63.6 IU/L
  BUN: 17.4 mg/dL
  CRE: 0.2 mg/dL
  Ca: 10.7 mg/dL
  Cl: 103.4 meq/L
  DBIL: 0.02 mg/dL
  GLC: 192.4 mg/dL
  IP: 7.6 mg/dL
  K: 4.1 meq/L
  LDH: 82.6 IU/L
  Na: 141.6 meq/L
  PL: 163 mg/dL
  RALB: 2.7 g/dL
  TBIL: 0.05 mg/dL
  TC: 81.8 mg/dL
  TG: 142 mg/dL
  TP: 6 g/dL
  gamma-GTP: 0.6 IU/L
[4]
  TERMINAL_BW: 390.1 g
  APTT: 17.6 s
  Bas: 0.4%
  Eos: 1.6%
  Fbg: 274.4 mg/dL
  Hb: 15.8 g/dL
  Ht: 45.6%
  Lym: 80.6%
  MCH: 19.9 pg
  MCHC: 34.5%
  MCV: 57.5 fL
  Mono: 2%
  Neu: 14.8%
  PT: 15.9 s
  Plat: 91.9 x10_4/uL
  RBC: 792.8 x10_4/ul
  Ret: 2.3%
  WBC: 101.1 x10_2/uL
  KIDNEY_L: 1.5 g
  KIDNEY_R: 1.4 g
  KIDNEY_TOTAL: 2.9 g
  LIVER: 16.7 g
  A/G: 0.8
  ALP: 1021.6 IU/L
  ALT: 37.2 IU/L
  AST: 59.4 IU/L
  BUN: 17.8 mg/dL
  CRE: 0.2 mg/dL
  Ca: 10.6 mg/dL
  Cl: 105 meq/L
  DBIL: 0.014 mg/dL
  GLC: 191.2 mg/dL
  IP: 6.7 mg/dL
  K: 4 meq/L
  LDH: 52 IU/L
  Na: 142.8 meq/L
  PL: 156.6 mg/dL
  RALB: 2.8 g/dL
  TBIL: 0.046 mg/dL
  TC: 77.4 mg/dL
  TG: 123 mg/dL
  TP: 6.2 g/dL
  gamma-GTP: 0.6 IU/L
[5]
  TERMINAL_BW: 215.1 g
  APTT: 17.1 s
  Bas: 0%
  Eos: 0.8%
  Fbg: 297 mg/dL
  Hb: 13.6 g/dL
  Ht: 40.5%
  Lym: 73.4%
  MCH: 20.9 pg
  MCHC: 33.5%
  MCV: 62.5 fL
  Mono: 3.2%
  Neu: 21.8%
  PT: 15.7 s
  Plat: 128.8 x10_4/uL
  RBC: 648.2 x10_4/ul
  Ret: 5.3%
  WBC: 97.2 x10_2/uL
  KIDNEY_L: 1 g
  KIDNEY_R: 1 g
  KIDNEY_TOTAL: 2 g
  LIVER: 11.2 g
  A/G: 0.8
  ALP: 2293.8 IU/L
  ALT: 42.6 IU/L
  AST: 72.8 IU/L
  BUN: 17.6 mg/dL
  CRE: 0.2 mg/dL
  Ca: 10.9 mg/dL
  Cl: 104.8 meq/L
  DBIL: 0.016 mg/dL
  GLC: 170.8 mg/dL
  IP: 7.8 mg/dL
  K: 3.9 meq/L
  LDH: 56.2 IU/L
  Na: 142.6 meq/L
  PL: 126.2 mg/dL
  RALB: 2.6 g/dL
  TBIL: 0.05 mg/dL
  TC: 67.8 mg/dL
  TG: 62.6 mg/dL
  TP: 5.6 g/dL
  gamma-GTP: 1 IU/L
[6]
  TERMINAL_BW: 246 g
  APTT: 18 s
  Bas: 0%
  Eos: 0.8%
  Fbg: 297 mg/dL
  Hb: 13.6 g/dL
  Ht: 40.3%
  Lym: 81%
  MCH: 21 pg
  MCHC: 33.7%
  MCV: 62.3 fL
  Mono: 2.2%
  Neu: 15.4%
  PT: 15.5 s
  Plat: 109.3 x10_4/uL
  RBC: 647.2 x10_4/ul
  Ret: 4.6%
  WBC: 79.7 x10_2/uL
  KIDNEY_L: 1.1 g
  KIDNEY_R: 1.1 g
  KIDNEY_TOTAL: 2.2 g
  LIVER: 15.2 g
  A/G: 0.8
  ALP: 2036.8 IU/L
  ALT: 34 IU/L
  AST: 61.4 IU/L
  BUN: 18 mg/dL
  CRE: 0.2 mg/dL
  Ca: 11 mg/dL
  Cl: 104.6 meq/L
  DBIL: 0.018 mg/dL
  GLC: 186 mg/dL
  IP: 7.9 mg/dL
  K: 4.4 meq/L
  LDH: 62 IU/L
  Na: 141.6 meq/L
  PL: 138.2 mg/dL
  RALB: 2.6 g/dL
  TBIL: 0.046 mg/dL
  TC: 76.8 mg/dL
  TG: 55 mg/dL
  TP: 5.8 g/dL
  gamma-GTP: 0.8 IU/L
[7]
  TERMINAL_BW: 300.3 g
  APTT: 18.5 s
  Bas: 0.4%
  Eos: 1%
  Fbg: 300.4 mg/dL
  Hb: 13.7 g/dL
  Ht: 40.2%
  Lym: 78%
  MCH: 20 pg
  MCHC: 34.2%
  MCV: 58.5 fL
  Mono: 3%
  Neu: 16.6%
  PT: 16.2 s
  Plat: 124.9 x10_4/uL
  RBC: 686.4 x10_4/ul
  Ret: 5.2%
  WBC: 128.4 x10_2/uL
  KIDNEY_L: 1.3 g
  KIDNEY_R: 1.4 g
  KIDNEY_TOTAL: 2.7 g
  LIVER: 18.1 g
  A/G: 0.8
  ALP: 2097.8 IU/L
  ALT: 39.6 IU/L
  AST: 66 IU/L
  BUN: 17.2 mg/dL
  CRE: 0.2 mg/dL
  Ca: 10.7 mg/dL
  Cl: 102.8 meq/L
  DBIL: 0.018 mg/dL
  GLC: 193 mg/dL
  IP: 7.6 mg/dL
  K: 4 meq/L
  LDH: 94.4 IU/L
  Na: 141.4 meq/L
  PL: 141.4 mg/dL
  RALB: 2.7 g/dL
  TBIL: 0.044 mg/dL
  TC: 75 mg/dL
  TG: 62.4 mg/dL
  TP: 5.9 g/dL
  gamma-GTP: 0.8 IU/L
[8]
  TERMINAL_BW: 378.6 g
  APTT: 22.4 s
  Bas: 0.4%
  Eos: 0.8%
  Fbg: 290.2 mg/dL
  Hb: 14.7 g/dL
  Ht: 42.3%
  Lym: 79.6%
  MCH: 18.5 pg
  MCHC: 34.8%
  MCV: 53.1 fL
  Mono: 2.4%
  Neu: 16.8%
  PT: 15.7 s
  Plat: 109.6 x10_4/uL
  RBC: 796.6 x10_4/ul
  Ret: 2.9%
  WBC: 135.7 x10_2/uL
  KIDNEY_L: 1.6 g
  KIDNEY_R: 1.5 g
  KIDNEY_TOTAL: 3.2 g
  LIVER: 21.7 g
  A/G: 0.8
  ALP: 1321.8 IU/L
  ALT: 33.2 IU/L
  AST: 58.8 IU/L
  BUN: 17.8 mg/dL
  CRE: 0.2 mg/dL
  Ca: 10.9 mg/dL
  Cl: 103.6 meq/L
  DBIL: 0.012 mg/dL
  GLC: 193.8 mg/dL
  IP: 7 mg/dL
  K: 4.5 meq/L
  LDH: 81.8 IU/L
  Na: 141.8 meq/L
  PL: 117.6 mg/dL
  RALB: 2.9 g/dL
  TBIL: 0.038 mg/dL
  TC: 64 mg/dL
  TG: 41.6 mg/dL
  TP: 6.4 g/dL
  gamma-GTP: 1 IU/L
